Where only a bound is given, the exact number is not on record here.

This note sets out measurements from US9802918B2, “Pyridineamine compounds useful as Pim kinase inhibitors” (Incyte Corporation, priority 2015, dated 2017).

Holding throughout (assay type): biochemical
The target of experiment [1] is Pim-3 (Homo sapiens (Human), UniProt Q86V86). In words: Pim-3 kinase assay. The conditions noted are these: 1 mM ATP; read-out: Pim3 IC50. The procedure, abridged:
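Human Pim-3 at 1.25 pM phosphorylated […] biotin-BAD peptide with 1 mM ATP for 1 h at 25° C, in pH 7.5 Tris buffer with 5 mM MgCl2 and 5 mM DTT. Reactions were stopped with EDTA buffer containing phospho-Bad (Ser112) antibody and AlphaScreen donor/acceptor beads. Plates were read after 1 h dark incubation at room temperature.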

Experiment [2] has as its target Pim-2 (Homo sapiens (Human), UniProt Q9P1W9). The experiment in a line: Pim-2 kinase assay. The conditions noted are these: 1 mM ATP; read-out: Pim2 IC50. The procedure, abridged:
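Pim-2 (1 nM) with fluorescein-CREBtide ([…]) and 1 mM ATP in Tris pH 7.5, MgCl2, DTT buffer, 2 h at 25 °C. Stopped with EDTA plus Tb-anti-CREB pSer133 antibody; phosphorylation read by TR-FRET after 30 min.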

Experiment [3] has as its target Pim-1 (Homo sapiens (Human), UniProt P11309). In words: Pim-1 kinase assay. Conditions: 1 mM ATP; read-out: Pim1 IC50. The protocol:
Supplementation of the STOP buffer with beads and stopping the reactions were done under reduced light. Prior to the stopping reactions STOP buffer with beads was preincubated for 1 h in the dark at room temperature. After stopping the reactions, plates were incubated for 1 h in the dark at room temperature before reading on a PHERAstar FS plate reader (BMG Labtech) under reduced light.

Pim-1, sequence (P11309 whole entry): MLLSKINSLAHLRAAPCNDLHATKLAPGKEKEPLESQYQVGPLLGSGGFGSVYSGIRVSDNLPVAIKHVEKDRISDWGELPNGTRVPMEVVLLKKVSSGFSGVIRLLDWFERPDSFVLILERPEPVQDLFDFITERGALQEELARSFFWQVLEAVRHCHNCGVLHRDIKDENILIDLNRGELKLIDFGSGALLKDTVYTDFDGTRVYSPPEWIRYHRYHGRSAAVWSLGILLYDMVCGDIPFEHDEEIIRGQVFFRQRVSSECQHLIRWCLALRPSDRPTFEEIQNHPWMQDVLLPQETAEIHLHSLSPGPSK
Pim-2, sequence (Q9P1W9 whole entry): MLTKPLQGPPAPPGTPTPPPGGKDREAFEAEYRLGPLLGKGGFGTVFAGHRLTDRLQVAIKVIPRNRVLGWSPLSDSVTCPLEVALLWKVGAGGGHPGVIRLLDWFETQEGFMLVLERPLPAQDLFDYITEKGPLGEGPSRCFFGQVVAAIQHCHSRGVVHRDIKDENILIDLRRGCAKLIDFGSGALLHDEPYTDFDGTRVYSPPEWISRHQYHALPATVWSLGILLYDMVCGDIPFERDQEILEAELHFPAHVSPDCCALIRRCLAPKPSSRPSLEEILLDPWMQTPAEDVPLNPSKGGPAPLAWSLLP

Take `C[C@H]1CN(c2ccncc2NCc2ccc(F)c(-c3c(F)cc(CN4CC[C@@H](C#N)C4)cc3F)n2)C[C@@H](N)[C@@H]1O` [Example 44, (R)-1-(4-(6-((4-((3R,4R,5S)-3-Amino-4-hydroxy-5-methylpiperidin-1-yl)pyridin-3-ylamino)methyl)-3-fluoropyridin-2-yl)-3,5-difluorobenzyl)pyrrolidine-3-carbonitrile]: the results for the IC50 in experiment [1], in experiment [2] and in experiment [3] were at most 10 nM, at most 100 nM and under 10 nM, respectively.
Turning to `C[C@H]1CN(c2ccncc2NCc2ccc(F)c(-c3c(F)cc(CN4CC[C@H](C#N)C4)cc3F)n2)C[C@@H](N)[C@@H]1O` [Example 45, (S)-1-(4-(6-((4-((3R,4R,5S)-3-Amino-4-hydroxy-5-methylpiperidin-1-yl)pyridin-3-ylamino)methyl)-3-fluoropyridin-2-yl)-3,5-difluorobenzyl)pyrrolidine-3-carbonitrile], the IC50 (as a rule, the concentration needed to halve the response being measured) in experiment [1] is at most 10 nM; in experiment [2], at most 100 nM; in experiment [3], under 10 nM.
On the same counts, the results for `C[C@H]1CN(c2ccncc2NCc2ccc(F)c(-c3c(F)cc(CN4CC[C@@H](F)C4)cc3F)n2)C[C@@H](N)[C@@H]1O` [Example 46, (3R,4R,5S)-3-amino-1-(3-(((6-(2,6-difluoro-4-(((R)-3-fluoropyrrolidin-1-yl)methyl)phenyl)-5-fluoropyridin-2-yl)methyl)amino)pyridin-4-yl)-5-methylpiperidin-4-ol] are at most 10 nM, at most 100 nM and under 10 nM.
On to `C[C@H]1CN(c2ccncc2NCc2ccc(F)c(-c3c(F)cc(CN4CC[C@H](F)C4)cc3F)n2)C[C@@H](N)[C@@H]1O` [Example 47, (3R,4R,5S)-3-amino-1-(3-(((6-(2,6-difluoro-4-(((S)-3-fluoropyrrolidin-1-yl)methyl)phenyl)-5-fluoropyridin-2-yl)methyl)amino)pyridin-4-yl)-5-methylpiperidin-4-ol], for which the IC50 in experiment [1] was at most 10 nM; in experiment [2], at most 100 nM; in experiment [3] it was under 10 nM.
For `C[C@@H]1C[C@H](N)CN(c2ccncc2NCc2ccc(F)c(-c3c(F)cc(CN4CCOCC4)cc3F)n2)C1` [Example 48, 4-[(3S,5R)-3-Amino-5-methylpiperidin-1-yl]-N-({6-[2,6-difluoro-4-(morpholin-4-ylmethyl)phenyl]-5-fluoropyridin-2-yl}methyl)pyridin-3-amine], in that order: at most 10 nM, at most 100 nM and under 10 nM.
Regarding `CNCc1cc(F)c(-c2nc(CNc3cnccc3N3C[C@H](C)C[C@H](N)C3)ccc2F)c(F)c1` [Example 49, 4-((3S,5R)-3-Amino-5-methylpiperidin-1-yl)-N-((6-(2,6-difluoro-4-((methylamino)methyl)phenyl)-5-fluoropyridin-2-yl)methyl)pyridin-3-amine], the IC50 in experiment [1] is at most 10 nM; in experiment [2], 100 to 1000 nM; in experiment [3], under 10 nM.
With `C[C@@H]1C[C@H](N)CN(c2ccncc2NCc2ccc(F)c(-c3c(F)cc(CN4CCC4)cc3F)n2)C1` [Example 50, 4-((3S,5R)-3-Amino-5-methylpiperidin-1-yl)-N-((6-(4-(azetidin-1-ylmethyl)-2,6-difluorophenyl)-5-fluoropyridin-2-yl)methyl)pyridin-3-amine], the IC50 in experiment [1] was at most 10 nM; in experiment [2], 100 to 1000 nM; in experiment [3] it was under 10 nM.
For `C[C@@H]1C[C@H](N)CN(c2ccncc2NCc2ccc(F)c(-c3c(F)cc(CN4CC[C@@H](O)C4)cc3F)n2)C1` [Example 51, (R)-1-(4-(6-((4-((3S,5R)-3-Amino-5-methylpiperidin-1-yl)pyridin-3-ylamino)methyl)-3-fluoropyridin-2-yl)-3,5-difluorobenzyl)pyrrolidin-3-ol], in that order: at most 10 nM, at most 100 nM and under 10 nM.
For `C[C@@H]1C[C@H](N)CN(c2ccncc2NCc2ccc(F)c(-c3c(F)cc(CN4CC[C@H](O)C4)cc3F)n2)C1` [Example 52, (S)-1-(4-(6-((4-((3S,5R)-3-Amino-5-methylpiperidin-1-yl)pyridin-3-ylamino)methyl)-3-fluoropyridin-2-yl)-3,5-difluorobenzyl)pyrrolidin-3-ol], in that order: at most 10 nM, at most 100 nM and under 10 nM.
For `C[C@@H]1C[C@H](N)CN(c2ccncc2NCc2ccc(F)c(-c3c(F)cc(CN4CC[C@@H](C#N)C4)cc3F)n2)C1` [Example 53, (R)-1-(4-(6-((4-((3S,5R)-3-amino-5-methylpiperidin-1-yl)pyridin-3-ylamino)methyl)-3-fluoropyridin-2-yl)-3,5-difluorobenzyl)pyrrolidine-3-carbonitrile], in that order: at most 10 nM, at most 100 nM and under 10 nM.
Consider `C[C@@H]1C[C@H](N)CN(c2ccncc2NCc2ccc(F)c(-c3c(F)cc(CN4CC[C@H](C#N)C4)cc3F)n2)C1` [Example 54, (S)-1-(4-(6-((4-((3S,5R)-3-amino-5-methylpiperidin-1-yl)pyridin-3-ylamino)methyl)-3-fluoropyridin-2-yl)-3,5-difluorobenzyl)pyrrolidine-3-carbonitrile], for which the IC50 in experiment [1] was at most 10 nM; in experiment [2], at most 100 nM; in experiment [3], under 10 nM.
For `C[C@@H]1C[C@H](N)CN(c2ccncc2NCc2ccc(F)c(-c3c(F)cc(CN4CC[C@@H](F)C4)cc3F)n2)C1` [Example 55, 4-((3S,5R)-3-amino-5-methylpiperidin-1-yl)-N-((6-(2,6-difluoro-4-(((R)-3-fluoropyrrolidin-1-yl)methyl)phenyl)-5-fluoropyridin-2-yl)methyl)pyridin-3-amine], in that order: at most 10 nM, at most 100 nM and under 10 nM.
For `C[C@@H]1C[C@H](N)CN(c2ccncc2NCc2ccc(F)c(-c3c(F)cc(CN4CC[C@H](F)C4)cc3F)n2)C1` [Example 56, 4-((3S,5R)-3-amino-5-methylpiperidin-1-yl)-N-((6-(2,6-difluoro-4-(((S)-3-fluoropyrrolidin-1-yl)methyl)phenyl)-5-fluoropyridin-2-yl)methyl)pyridin-3-amine], the results for the IC50 in experiment [1], in experiment [2] and in experiment [3] were at most 10 nM, at most 100 nM and under 10 nM, respectively.
For `C[C@H]1CN(c2ccncc2NCc2ccc(F)c(C3=CCCCC3)n2)C[C@@H](N)[C@@H]1O` [Example 57], in that order: at most 10 nM, 100 to 1000 nM and under 10 nM.
With `C[C@@H]1C[C@H](N)CN(c2ccncc2NCc2ccc(F)c(C3CCCCC3)n2)C1` [Example 58, 4-[(3S,5R)-3-Amino-5-methylpiperidin-1-yl]-N-[(6-cyclohexyl-5-fluoropyridin-2-yl)methyl]pyridin-3-amine], the half-maximal inhibitory concentration (IC50) was 10 to 50 nM in experiment [1], 100 to 1000 nM in experiment [2] and under 10 nM in experiment [3].
In the case of `COC1(c2cc(F)c(-c3nc(CNc4cnccc4N4C[C@@H](N)[C@H](O)[C@@H](C)C4)ccc3F)c(F)c2)CCOCC1` [Example 59, (3R,4R,5S)-3-Amino-1-{3-[({6-[2,6-difluoro-4-(4-methoxytetrahydro-2H-pyran-4-yl)phenyl]-5-fluoropyridin-2-yl}methyl)amino]pyridin-4-yl}-5-methylpiperidin-4-ol], the IC50 in experiment [1] was at most 10 nM; in experiment [2], 100 to 1000 nM; in experiment [3] it was under 10 nM.
With `COC1(c2cc(F)c(-c3nc(CNc4cnccc4N4C[C@H](C)C[C@H](N)C4)ccc3F)c(F)c2)CCOCC1` [Example 60, 4-[(3S,5R)-3-Amino-5-methylpiperidin-1-yl]-N-({6-[2,6-difluoro-4-(4-methoxytetrahydro-2H-pyran-4-yl)phenyl]-5-fluoropyridin-2-yl}methyl)pyridin-3-amine], the IC50 is at most 10 nM in experiment [1], 100 to 1000 nM in experiment [2] and under 10 nM in experiment [3].
For `C[C@H]1CN(c2ccncc2NCc2ccc(F)c(-c3c(F)cc(C4(F)CCOCC4)cc3F)n2)C[C@@H](N)[C@@H]1O` [Example 61, (3R,4R,5S)-3-Amino-1-{3-[({6-[2,6-difluoro-4-(4-fluorotetrahydro-2H-pyran-4-yl)phenyl]-5-fluoropyridin-2-yl}methyl)amino]pyridin-4-yl}-5-methylpiperidin-4-ol], in that order: at most 10 nM, at most 100 nM and under 10 nM.
On the same counts, the results for `C[C@@H]1C[C@H](N)CN(c2ccncc2NCc2ccc(F)c(-c3c(F)cc(C4(F)CCOCC4)cc3F)n2)C1` [Example 62, 4-[(3S,5R)-3-Amino-5-methylpiperidin-1-yl]-N-({6-[2,6-difluoro-4-(4-fluorotetrahydro-2H-pyran-4-yl)phenyl]-5-fluoropyridin-2-yl}methyl)pyridin-3-amine] are at most 10 nM, at most 100 nM and under 10 nM.
On the same counts, the results for `C[C@H]1CN(c2ccncc2NCc2ccc(F)c(-c3c(F)cc(C4CCOCC4)cc3F)n2)C[C@@H](N)[C@@H]1O` [Example 63, (3R,4R,5S)-3-Amino-1-{3-[({6-[2,6-difluoro-4-(tetrahydro-2H-pyran-4-yl)phenyl]-5-fluoropyridin-2-yl}methyl)amino]pyridin-4-yl}-5-methylpiperidin-4-ol] are at most 10 nM, at most 100 nM and under 10 nM.
